Test results from patent US11377442B2, “Small molecule agonists and antagonists of NR2F6 activity” (ZANDER THERAPEUTICS, INC., priority 2016, dated 2022).

Legend:
Format in all cases: cell-based
Renilla_ERa = assay: Renilla signal in ERα counterscreen (Renilla_ERa); conditions: for fold induction at 2 µM / fold induction at 10 µM / fold induction at 40 µM: read-out: Renilla ERalpha transient, cmpd/DMSO (mean)
NR2F6 = molecular target: T1, NR2F6 (Homo sapiens, UniProt P10588); assay: NR2F6 agonist screening, Firefly signal cmpd/DMSO; conditions: clone F4
T1 construct: expressed in transfected cells; also transient transfection
T1 sequence (P10588 1-404): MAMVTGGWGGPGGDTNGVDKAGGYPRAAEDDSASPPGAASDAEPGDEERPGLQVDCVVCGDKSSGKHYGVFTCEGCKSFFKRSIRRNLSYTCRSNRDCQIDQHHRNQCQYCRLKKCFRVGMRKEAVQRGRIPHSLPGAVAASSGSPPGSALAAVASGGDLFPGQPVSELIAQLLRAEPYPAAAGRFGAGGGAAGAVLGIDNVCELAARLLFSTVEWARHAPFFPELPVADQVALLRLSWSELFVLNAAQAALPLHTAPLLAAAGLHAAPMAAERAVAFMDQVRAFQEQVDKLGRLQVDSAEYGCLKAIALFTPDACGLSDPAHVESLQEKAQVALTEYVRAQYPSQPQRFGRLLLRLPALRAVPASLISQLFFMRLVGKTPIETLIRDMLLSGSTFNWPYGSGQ

Renilla = Renilla signal in NR2F6 agonist screening, cmpd/DMSO; conditions: clone F4; for fold induction at 2 µM / fold induction at 10 µM / fold induction at 40 µM: Renilla, read-out: Renilla F4, cmpd/DMSO (mean)
ERα [1] = molecular target: T2, ERα (Homo sapiens, UniProt P03372); assay: Counterscreening, Firefly signal with ERα transient transfection (Firefly_ERa); conditions: 10 uM
T2 construct: expressed in transfected cells
T2 sequence (P03372 1-595): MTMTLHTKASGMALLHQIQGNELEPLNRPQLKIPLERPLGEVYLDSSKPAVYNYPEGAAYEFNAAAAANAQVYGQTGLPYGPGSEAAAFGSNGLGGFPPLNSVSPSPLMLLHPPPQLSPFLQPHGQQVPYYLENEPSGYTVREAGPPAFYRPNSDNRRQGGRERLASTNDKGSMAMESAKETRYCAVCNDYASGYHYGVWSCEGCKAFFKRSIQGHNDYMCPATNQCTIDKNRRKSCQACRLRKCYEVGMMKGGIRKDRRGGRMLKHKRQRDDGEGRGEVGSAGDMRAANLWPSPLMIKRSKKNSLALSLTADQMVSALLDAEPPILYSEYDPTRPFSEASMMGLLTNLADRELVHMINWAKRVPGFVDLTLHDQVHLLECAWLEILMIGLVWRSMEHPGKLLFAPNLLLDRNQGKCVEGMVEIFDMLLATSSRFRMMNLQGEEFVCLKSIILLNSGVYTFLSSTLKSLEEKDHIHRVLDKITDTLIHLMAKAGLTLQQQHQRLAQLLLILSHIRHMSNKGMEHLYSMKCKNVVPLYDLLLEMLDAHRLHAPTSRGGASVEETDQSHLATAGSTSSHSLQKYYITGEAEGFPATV
Experimental: The methodology for screening candidate compounds as NR2F6 agonists was as follows: For primary screening, hit criteria was ACT %>DMSO control+5*SD (DSO control) at 10 μM, or any compound with S/B>2. For rescreening, hit criteria was ACT %>DMSO control+3*SD (DSO control) in each replicate at 10 μM. For counterscreening, hit criteria was mean ACT<DMSO control+3*SD (DMSO control) with ERα transient transfection in duplicate at 10 μM.

ERα [2] = molecular target: T2, ERα; assay: as above

Row | SMILES | fold induction at 2 µM (Renilla_ERa; 2 uM) | fold induction at 10 µM (Renilla_ERa; 10 uM) | fold induction at 40 µM (Renilla_ERa; 40 uM) | Firefly F4, cmpd/DMSO (mean) (NR2F6; 2 uM) | Firefly F4, cmpd/DMSO (mean) (NR2F6; 10 uM) | Firefly F4, cmpd/DMSO (mean) (NR2F6; 40 uM) | fold induction at 2 µM (Renilla; 2 uM) | fold induction at 10 µM (Renilla; 10 uM) | fold induction at 40 µM (Renilla; 40 uM) | Firefly ERalpha transient, cmpd/DMSO (mean) (ERα [1]) | Firefly ERalpha transient, cmpd/DMSO (mean) (ERα [2]; 2 uM) | Firefly ERalpha transient, cmpd/DMSO (mean) (ERα [2]; 40 uM) | Renilla ERalpha transient, cmpd/DMSO (mean) (Renilla_ERa; 2 uM) | Renilla ERalpha transient, cmpd/DMSO (mean) (Renilla_ERa; 10 uM) | Renilla ERalpha transient, cmpd/DMSO (mean) (Renilla_ERa; 40 uM) | Renilla F4, cmpd/DMSO (mean) (Renilla; 2 uM) | Renilla F4, cmpd/DMSO (mean) (Renilla; 10 uM) | Renilla F4, cmpd/DMSO (mean) (Renilla; 40 uM)
1 | CCOC(=O)Cc1sc(Nc2nc(C)cc(C)n2)nc1-c1ccccc1 [Compound 28] | 1.2 | 0.8 | 0.7 | 1.2 | 0.9 | 0.6 | 1.1 | 0.8 | 0.6 | 0.5 | 1.0 | 0.6 | – | – | – | – | – | –
2 | Cc1cc(C)nc(Nc2nc(-c3ccccc3)c(CC(=O)O)s2)n1 [Compound 29] | 1.1 | 1 | 1.1 | 0.9 | 1.4 | 1.5 | 0.8 | 0.9 | 0.8 | 1.7 | 1.2 | 2.2 | – | – | – | – | – | –
3 | Cc1cc(-c2ccccc2)nc(Nc2nc(-c3ccccc3)c(CC(=O)O)s2)n1 [Compound 30] | 1.2 | 1.2 | 1 | 1.5 | 1.6 | 1.8 | 1.2 | 2.3 | 3.4 | 1.5 | 1.1 | 1.3 | – | – | – | – | – | –
4 | O=c1cccc2n1CC1CC2CN(c2nc(N3CCOCC3)nc(N3CCOCC3)n2)C1 (stereo not drawn) [Compound 31] | 1 | 1.1 | 1.1 | 0.8 | 1.0 | 0.9 | 1 | 1 | 1 | 1.2 | 0.8 | 1.0 | – | – | – | – | – | –
5 | O=c1cccc2n1CC1CC2CN(c2nc(NCCC3=CCCCC3)nc(N3CCCC3)n2)C1 (stereo not drawn) [Compound 32] | 1.2 | 1.3 | 1.1 | 0.8 | 1.3 | 0.8 | 1.2 | 1.4 | 1 | 1.2 | 1.2 | 0.7 | – | – | – | – | – | –
6 | O=c1cccc2n1CCN(c1nc(NCC3CCCO3)nc(N3CCOCC3)n1)C2 (stereo not drawn) [Compound 33] | – | – | – | 0.8 | 1.0 | 1.1 | – | – | – | 1.3 | 1.3 | 1.4 | 1.2 | 1.1 | 1.3 | 1.2 | 1.3 | 1.4
7 | CC(C)Nc1nc(N2CCOCC2)nc(N2CCn3c(cccc3=O)C2)n1 [Compound 34] | – | – | – | 0.9 | 0.8 | 0.9 | – | – | – | 1.2 | 1.1 | 1.2 | 1.0 | 1.1 | 1.1 | 0.9 | 1.1 | 0.9
8 | CC(C)Nc1nc(N2CCCC2)nc(N2CCn3c(cccc3=O)C2)n1 [Compound 35] | – | – | – | 1.1 | 1.0 | 0.8 | – | – | – | 0.9 | 1.0 | 1.3 | 1.0 | 1.0 | 1.1 | 1.1 | 0.9 | 0.9
9 | CC1CCN(c2nc(N3CCC(C)CC3)nc(N3CCn4c(cccc4=O)C3)n2)CC1 [Compound 36] | – | – | – | 1.3 | 0.6 | 0.9 | – | – | – | 0.8 | 1.1 | 0.4 | 1.2 | 1.1 | 0.3 | 1.2 | 0.8 | 0.5
10 | CCCNc1nc(N2CCOCC2)nc(N2CC3CC(C2)c2cccc(=O)n2C3)n1 (stereo not drawn) [Compound 37] | 1.1 | 1.1 | 1.1 | 1.3 | 1.1 | 1.3 | 0.9 | 1.2 | 1.3 | 1.4 | 1.1 | 1.2 | – | – | – | – | – | –
11 | COc1nc(NCCC2=CCCCC2)nc(N2CC3CC(C2)c2cccc(=O)n2C3)n1 (stereo not drawn) [Compound 38] | 1.2 | 1.1 | 1.1 | 1.2 | 0.8 | 0.7 | 1.1 | 1.1 | 1.3 | 0.9 | 0.8 | 0.5 | – | – | – | – | – | –
12 | O=c1cccc2n1CC1CC2CN(c2nc(NCCC3=CCCCC3)nc(N3CCOCC3)n2)C1 (stereo not drawn) [Compound 39] | 1.1 | 1.2 | 1.2 | 1.1 | 0.9 | 0.9 | 1.2 | 1.4 | 1 | 0.6 | 0.9 | 0.9 | – | – | – | – | – | –
13 | CCCCCCNc1nc(OCC)nc(N2CCn3c(cccc3=O)C2)n1 [Compound 40] | – | – | – | 0.9 | 1.0 | 0.8 | – | – | – | 1.0 | 1.0 | 0.7 | 1.2 | 1.2 | 1.1 | 1.1 | 1.3 | 1.0
14 | CCCCCCNc1nc(OC)nc(N2CCn3c(cccc3=O)C2)n1 [Compound 41] | – | – | – | 0.8 | 0.9 | 0.9 | – | – | – | 1.5 | 1.5 | 1.4 | 1.2 | 1.2 | 1.1 | 1.1 | 1.1 | 1.1
